Common to all, as to type: cell-based
The test system of data set [1] is MCF7/VP. Nature of the data set: Inhibition of MRP expressed in human MCF7/VP cells assessed as increase in cisplatin-induced cytotoxicity.
The target of data set [2] is T1, ATP-dependent translocase ABCB1 (Homo sapiens, UniProt P08183). Kind of data set: Inhibition of p-glycoprotein expressing human MCF7/ADR cells assessed as increase in vinblastine sensitivity to cell killing at 0.6 uM after 48 hrs by SRB assay. The following applies: nci/adr-res.
T1 sequence (P08183 whole entry): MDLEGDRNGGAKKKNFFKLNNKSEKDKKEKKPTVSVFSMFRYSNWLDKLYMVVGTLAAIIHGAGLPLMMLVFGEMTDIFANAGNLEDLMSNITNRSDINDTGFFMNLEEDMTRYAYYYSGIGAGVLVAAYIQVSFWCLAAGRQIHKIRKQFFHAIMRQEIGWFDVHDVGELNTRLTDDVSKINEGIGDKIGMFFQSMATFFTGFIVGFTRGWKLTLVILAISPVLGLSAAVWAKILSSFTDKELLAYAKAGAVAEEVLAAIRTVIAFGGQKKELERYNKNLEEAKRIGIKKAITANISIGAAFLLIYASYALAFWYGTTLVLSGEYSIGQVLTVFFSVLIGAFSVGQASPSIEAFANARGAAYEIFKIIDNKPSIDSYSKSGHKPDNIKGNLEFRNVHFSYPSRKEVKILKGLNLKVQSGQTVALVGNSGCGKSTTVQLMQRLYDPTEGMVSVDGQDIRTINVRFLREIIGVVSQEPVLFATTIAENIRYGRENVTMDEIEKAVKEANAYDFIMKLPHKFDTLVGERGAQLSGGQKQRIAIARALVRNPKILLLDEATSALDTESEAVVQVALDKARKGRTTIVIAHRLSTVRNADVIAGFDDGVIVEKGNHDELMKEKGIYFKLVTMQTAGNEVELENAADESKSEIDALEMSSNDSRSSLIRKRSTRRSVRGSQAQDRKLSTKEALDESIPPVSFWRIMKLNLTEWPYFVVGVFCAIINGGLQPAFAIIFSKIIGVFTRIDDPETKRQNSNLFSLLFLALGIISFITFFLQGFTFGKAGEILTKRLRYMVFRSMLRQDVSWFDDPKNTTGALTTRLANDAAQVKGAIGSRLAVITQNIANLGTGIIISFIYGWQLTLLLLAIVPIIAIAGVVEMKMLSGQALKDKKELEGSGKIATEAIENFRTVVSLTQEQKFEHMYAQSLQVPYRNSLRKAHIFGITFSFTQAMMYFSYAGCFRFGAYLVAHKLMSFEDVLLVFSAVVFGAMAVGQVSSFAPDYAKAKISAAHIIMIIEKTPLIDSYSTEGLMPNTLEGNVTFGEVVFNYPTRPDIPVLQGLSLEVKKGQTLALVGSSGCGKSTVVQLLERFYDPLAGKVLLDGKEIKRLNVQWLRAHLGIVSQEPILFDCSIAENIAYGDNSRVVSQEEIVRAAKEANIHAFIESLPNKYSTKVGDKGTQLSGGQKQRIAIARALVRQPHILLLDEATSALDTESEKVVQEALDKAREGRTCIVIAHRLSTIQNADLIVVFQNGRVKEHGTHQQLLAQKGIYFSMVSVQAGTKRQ
Data set [3] has as its target T1, ATP-dependent translocase ABCB1. Kind of data set: Inhibition of p-glycoprotein expressing human MCF7/ADR cells assessed as cell killing after 48 hrs by SRB binding assay in presence of 200 uM actinomycin D. The conditions noted are these: nci/adr-res. Background: In SRB staining, fixed cells bind dye roughly in proportion to their protein.
Data set [4] has as its system MCF7/VP. Nature of the data set: Inhibition of MRP expressing human MCF7/VP cells assessed as increase in vincristine-induced cytotoxicity at 5 to 10 uM after 48 hrs by SRB binding assay.
Data set [5] relates to MCF7/VP. Nature of the data set: Inhibition of MRP expressed in human MCF7/VP cells assessed as increase in etoposide-induced cytotoxicity.
For data set [6], the system named is MCF7/VP. Kind of data set: Inhibition of MRP expressed in human MCF7/VP cells assessed as increase in doxorubicin-induced cytotoxicity.
Data set [7] relates to NCI/ADR-RES. Kind of data set: Displacement of [3H]azidopine from p-glycoprotein expressed in human MCF7/ADR cells assessed as photoaffinity labeling reduction at 0.5 uM. Set-up: scale not given: the % may be the effect or the level left.
Data set [8] addresses T1, ATP-dependent translocase ABCB1. Nature of the data set: Inhibition of p-glycoprotein expressing human MCF7 cells assessed as [3H]vinblastine accumulation.
The target is the same in data set [9]. Nature of the data set: Inhibition of p-glycoprotein expressing human MCF7/ADR cells assessed as cell killing after 48 hrs by SRB binding assay in presence of 15M daunomycin. The conditions noted are these: nci/adr-res.
Data set [10] has the same target. Kind of data set: Inhibition of p-glycoprotein expressing human MCF7/ADR cells assessed as cell killing after 48 hrs by SRB binding assay in presence of 4 uM cisplatin. The conditions noted are these: nci/adr-res.
The target is the same in data set [11]. Nature of the data set: Inhibition of p-glycoprotein expressing human MCF7/ADR cells assessed as [3H]vinblastine accumulation treated at 20 uM measured after 60 mins. The conditions noted are these: nci/adr-res, 1 h.
Data set [12] concerns NCI/ADR-RES. Nature of the data set: Displacement of [3H]azidopine from p-glycoprotein expressed in human MCF7/ADR cells assessed as photoaffinity labeling reduction at 10 uM. Also on record: scale not given: the % may be the effect or the level left. (Loss of bound radioactivity is the signal in a displacement assay; it reports binding, not function.)
In data set [13] the target is T1, ATP-dependent translocase ABCB1. Kind of data set: Inhibition of p-glycoprotein expressing human MCF7/ADR cells assessed as [3H]vinblastine accumulation treated at 5 uM measured after 60 mins. The conditions noted are these: nci/adr-res, 1 h.
Data set [14] deals with MCF7/VP. Kind of data set: Inhibition of MRP expressed in human MCF7/VP cells assessed as increase in vincristine-induced cytotoxicity at 20 uM after 48 hrs by SRB binding assay.

Active and inactive are the calls of the source. No cut-off for these calls is given here.

Here are results for 4 compounds from ChEMBL document CHEMBL1158235, “Dendroamides, new cyclic hexapeptides from a blue-green alga. Multidrug-resistance reversing activity of dendroamide A” (J Nat Prod, 1996).

As to `Cc1oc2nc1C(=O)N[C@H](C(C)C)c1nc(cs1)C(=O)N[C@H](C)c1nc(cs1)C(=O)N[C@@H]2C` [DENDROAMIDE A], the result in the data set on MCF7/VP [1] was inactive. Moreover, the Activity entry is “Active” in [2]; “Active” in data set [3]; 50% in the data set with NCI/ADR-RES [7]; “Not Active” in data set [8]; “Active” in data set [9]; “Not Active” in [10]. In addition, the result with MCF7/VP [4], with MCF7/VP [5] and in the data set with MCF7/VP [6] was Active.

For the compound `CSCC[C@H]1NC(=O)c2csc(n2)[C@@H](C)NC(=O)c2nc(oc2C)[C@@H](C)NC(=O)c2csc1n2` [DENDROAMIDE B], the Activity result in data set [2], in [11], in data set [3], in data set [13], in data set [8] and in [9] was “Not Active” each time. Further, the Activity result in data set [10] is “Not Active”. Also, the result in the data set with NCI/ADR-RES [12] and in the data set on NCI/ADR-RES [7] was inactive.

In the case of `Cc1oc2nc1C(=O)N[C@H](C)c1nc(cs1)C(=O)N[C@H](CC[S+](C)[O-])c1nc(cs1)C(=O)N[C@@H]2C` (stereo partly specified) [DENDROAMIDE C], the Activity entry in data set [2], in data set [11], in [3], in data set [13], in data set [8] and in [9] was “Not Active” in each case. Further, the Activity entry in [10] is reported as “Not Active”. The outcome with NCI/ADR-RES [12] and in the data set with NCI/ADR-RES [7] was inactive.

Regarding `COc1ccc(CCN(C)CCCC(C#N)(c2ccc(OC)c(OC)c2)C(C)C)cc1OC` (stereo unspecified) [VERAPAMIL], the Activity was 50% with NCI/ADR-RES [12] and “Not Active” in data set [8]. Further, in the data set on MCF7/VP [14], the outcome was Active.
